Measured values as given in PubChem BioAssay AID179 (DTP/NCI, 2004).
The source made the active and inactive calls.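 How the source made its calls: active means compounds giving half or more protection of infected cells from virus-caused growth loss, again on retest; inactive means the rest.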

Tested on: CEM cells HIV-1 protection, formazan growth assay
Experiment: NCI AIDS Antiviral Assay
Details: for IC50: measured here: growth of uninfected CEM cells
Summary of the method: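 CEM (human) cells, HIV-1 infected vs uninfected, 5-point dosing, formazan growth read-out. Retest threshold 50% protection.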

Structure (SMILES) | EC50 | IC50 | outcome
CCN(CC)c1ccc2cc(C(=O)Nc3nc(C45CC6CC(CC(C6)C4)C5)cs3)c(=O)oc2c1 | > 200 µM | > 200 µM | 
COc1cc(/C=C(\OC(C)=O)c2ccc3c(c2)OCO3)cc(OC)c1OC | > 126 µM | 52.5 µM | 
COc1ccc(CNc2nc3cc(C(F)(F)F)ccc3nc2C(=O)O)cc1OC | > 200 µM | 66.1 µM | 
CC(SC(=N)N)C(=N)N (stereo not drawn) | > 200 µM | > 200 µM | 
CN1CCN(C(=S)N(C)C(=O)c2cccs2)CC1 | > 891 µM | > 891 µM | 
[O-][n+]1nc2ccccc2c2ccccc21 | > 347 µM | 141 µM | 
CCC[CH2][Sn]1([CH2]CCC)[O]C(c2ccccn2)S(=O)(=O)[O]1 (stereo not drawn) | > 30.9 µM | 0.178 µM | 
C=C(C)[C@@]1(O)O[C@H]2C[C@@]3(C)OC(=CC3=O)/C(C)=C\[C@@H]3OC(=O)[C@@]1(C)[C@H]32 | > 200 µM | 5.25 µM | 
Cc1cc(-c2cccc3ccccc23)c(C#N)c(=S)n1C1OC(CO)C(O)C(O)C1O (stereo not drawn) | > 200 µM | 66.1 µM | 
COc1ccc2c(-c3cc4ccccc4o3)cc(=O)oc2c1 |  |  | inactive
CC(=O)NCS(=O)(=O)O | > 200 µM | > 200 µM | 
COc1ccc(C(=O)O/N=C2/CCC/C2=C\c2ccccc2)cc1 |  |  | inactive
COC(=O)c1cc(C(=Cc2c(F)c(F)c(F)c(F)c2F)c2cc(Cl)c(OC)c(C(=O)OC)c2)cc(Cl)c1OC | > 17.4 µM | > 17.4 µM | 
[O-][n+]1nc(N2CCOCC2)nc2ccccc21 | > 200 µM | > 200 µM | 
N#Cc1cccc(-n2[nH]c(=O)ccc2=O)c1 | > 200 µM | > 200 µM | 
CCOC(=O)c1cc(C2=CCNC2=O)c(-c2cc(C)no2)[nH]1 | > 200 µM | 33.1 µM | 
O=C(NNC(=O)c1ccco1)c1ccco1 | > 200 µM | > 200 µM | 
CC1(C)Nc2cccc3c(N=Nc4ccc(N=Nc5ccccc5)c5ccccc45)ccc(c23)N1 | > 200 µM | 26.3 µM | 
CCCCc1c2c(nc3c1CCc1cc4cc5c(nc4nc1-3)-c1nc3c(c(CCCC)c1CC5)CCCC3)CCCC2 | > 0.977 µM | > 0.977 µM | 
Cc1c(C(=O)c2ccccc2)n(COCCC[Se]c2ccccc2)c(=O)[nH]c1=O | > 200 µM | 18.2 µM | 
COC12OC3(C4OC41)C(C(=O)O[C@H]3CO[Si](C)(C)C(C)(C)C)C2C(=O)Oc1ccccc1 (stereo partly drawn) | > 200 µM | > 200 µM | 
CCOC(=O)C(C)(C)Oc1ccc(N=[N+]=[N-])cc1 | > 200 µM | > 200 µM | 

Structure (SMILES) | EC50 | IC50 | outcome
COc1ccc(OC)c2c(C(=O)O)c(Cc3ccccc3)ccc12 |  |  | inactive
C=Cc1ccncc1 | > 200 µM | > 200 µM | 
COc1cc(C(=O)c2cocc2C(=O)c2ccc3c(c2)OCO3)cc(OC)c1OC |  |  | inactive
C=C(C)C1CC=C(C)C(O)([C@@]2(O)C[C@H](C(=C)C)CC=C2C)C1 (stereo partly drawn) |  |  | inactive
C/C(=N/N=C(\[O-])c1ccncc1)C(F)(F)F.C/C(=N\N=C(/[O-])c1ccncc1)C(F)(F)F.[Cu+2] | > 200 µM | 18.2 µM | 
O=C1C(Cl)N(c2c(Cl)cccc2Cl)C1c1c[nH]c2ccccc12 (stereo not drawn) | > 257 µM | 115 µM | 
Cc1ccc(/C=C2\NC(=S)NC2=O)cc1 | > 200 µM | > 200 µM | 
CC(=O)NC(CCCCN(Cc1ccccc1)C(=O)N(CCCl)N=O)C(=O)NCc1ccccc1 (stereo not drawn) | > 72.4 µM | > 72.4 µM | 
Cc1ccc(/C=C2\NC(=S)N(CN3CCOCC3)C2=O)cc1 | > 200 µM | 45.7 µM | 
CCOC(=O)/C=C1\Nc2ccccc2C(c2ccccc2)=NC1OC(C)=O (stereo not drawn) | > 20 µM | > 20 µM | 
O=C(O)/C=C/SCCC(=O)O | > 1410 µM | > 1410 µM | 
C=CCNC(=S)OCCCCCCCCCC |  |  | inactive
COc1ccc2c(c1OC)C(=O)O[C@@H]2[C@H]1c2c(cc3c(c2OC)OCO3)CCN1C | > 200 µM | 24.5 µM | 
O=P1(C(c2ccccc2)c2ccccc2)OC2CC(Cl)CC(C2)O1 (stereo not drawn) | > 7.24 µM | > 7.24 µM | 
N#CCCC1(CCC#N)CCCCCCCCC(CCC#N)(CCC#N)C(O)C1O (stereo not drawn) | > 200 µM | > 200 µM | 
COc1ccc(N=NC(=O)NC(CC(C)C)C(=O)NC(Cc2ccccc2)C(=O)O)cc1 (stereo not drawn) | > 200 µM | 3.09 µM | 
COc1cccc(-c2nc(-c3cnccn3)n(Cc3ccccc3)n2)c1 | > 200 µM | > 200 µM | 
CC(=O)c1c2c(cc3c1CC1(Cc4cc5c(cc4C1)C(=O)CCC5)C3)CCCC2 (stereo not drawn) | > 200 µM | 3.63 µM | 
OC1CSCCSCCCSCCSC1 | > 126 µM | > 126 µM | 
COc1ccc(-c2cc(=O)c3c(O)cccc3o2)cc1 | > 200 µM | > 200 µM | 
Nc1cc2nc3ccccc3sc-2cc1=O | 3.39 µM | 60.3 µM | 
Brc1ccc(N=NN2CCCC2)cc1 | > 200 µM | 38.9 µM | 

Structure (SMILES) | EC50 | IC50 | outcome
Fc1cccc(C=NC23CC4CC(CC(C4)C2)C3)c1 | > 52.5 µM | > 52.5 µM | 
CN(C)CCOc1ccc([N+](=O)[O-])c2cccnc12 | > 100 µM | 50.1 µM | 
O=C(COc1ccc(Br)cc1Br)N1N=C(c2ccc([N+](=O)[O-])o2)CC1(O)c1ccccc1 (stereo not drawn) | > 6.61 µM | > 6.61 µM | 
O=[N+]([O-])c1ccc(-c2ccc(/C=N/n3c(-c4ccc(Cl)cc4)n[nH]c3=S)o2)cc1 | > 1.23 µM | > 1.23 µM | 
CC1(Br)C(=O)C(O)=C(Br)C1=O (stereo not drawn) | > 200 µM | 19.5 µM | 
Cn1c(=O)sc2cc(C(=S)N3CCC(Cc4ccccc4)CC3)ccc21 | > 200 µM | 36.3 µM | 
CCOC(=O)CC1(C)c2nc(NC(C)=O)sc2Cc2sc(NC(C)=O)nc21 | > 200 µM | 186 µM | 
CCCC[N+](CCCC)=c1cc(-c2ccc(Cl)cc2)ss1 | > 20 µM | 0.708 µM | 
CCCC(O)c1cn(-c2cccc(S(=O)(=O)O)c2)nn1 (stereo not drawn) | > 832 µM | > 832 µM | 
CC(=O)Nc1ccc2cc3[nH]c4cc(NC(C)=O)ccc4c3nc2c1 | > 200 µM | 17.8 µM | 
Cc1ccc(Nc2nc(=O)[nH]c(=O)[nH]2)cc1N=[N+]=[N-] | > 200 µM | > 200 µM | 
CC(=O)[C@@]12OC(C)(c3ccco3)O[C@@H]1C[C@H]1[C@@H]3CCC4=CC(=O)CC[C@]4(C)[C@H]3CC[C@@]12C (stereo partly drawn) | > 200 µM | 158 µM | 
COC(=O)/C(=N\NC(=O)c1ccccc1O)C(C#N)c1ccc(Cl)cc1 (stereo not drawn) | > 479 µM | 0.912 µM | 
COC(=O)CN1C(=O)C2(C(=O)OC)OC1(c1ccc([N+](=O)[O-])cc1)C1C(=O)N(c3ccccc3)C(=O)C12 (stereo not drawn) | > 200 µM | > 200 µM | 
Cc1ccc(S(=O)(=O)N2CCSCCSCCN(S(=O)(=O)c3ccc(C)cc3)CCN(S(=O)(=O)c3ccc(C)cc3)CC2)cc1 | > 14.1 µM | > 14.1 µM | 
Cc1cnc([C@H]2CCC3[C@@H]4CC=C5C[C@@H](OC(=O)CCC(=O)O)CC[C@]5(C)C4CC[C@@]32C)s1 (stereo partly drawn) | > 52.5 µM | 50.1 µM | 
FC(F)(F)c1ccc(C2SCc3nc4ccccc4n32)cc1 (stereo not drawn) |  |  | inactive
O=C(N/N=C\C(F)(F)F)c1ccncc1 | > 200 µM | 3.55 µM | 
C=CC[P@@]1(=O)O[C@H](c2ccccc2)C(C)N1C(C)C (stereo partly drawn) |  |  | inactive
O=[N+]([O-])c1ccc(-c2csc(N=Nc3c(O)[nH]c4ccccc34)n2)cc1 | 141 µM | > 200 µM | 
COc1ccc(C)cc1NC(=O)C(Br)C(Br)C(=O)O (stereo not drawn) | > 200 µM | 13.5 µM | 
COc1ccc(-c2c3ccccc3c(-c3ccc(OCCBr)cc3)c3ccccc23)cc1 | > 100 µM | > 100 µM | 

Structure (SMILES) | EC50 | IC50 | outcome
COC(=O)C(CCC1(C)OCCO1)=[N+]=[N-] | > 251 µM | > 251 µM | 
COC(=O)CC1C2CC3C(C2=O)C13 (stereo not drawn) | > 200 µM | > 200 µM | 
C[C@]12CCC(=O)C=C1CC[C@@H]1C2CC[C@@]2(C)C1CC[C@@H]2OC(=O)C12OC1CCC2=O (stereo partly drawn) | > 200 µM | 10.7 µM | 
O=C(OCc1ccccc1)C1CCN1C(c1ccccc1)c1ccccc1 (stereo not drawn) | > 100 µM | > 100 µM | 
COc1ccc2c(c1O)-c1c(OC)c(OC)cc3c1C(C2)N(C)CC3 (stereo not drawn) | > 200 µM | > 200 µM | 
CC1CC(C)(C)NCCNC(C)CC(C)(C)NCCN1 (stereo not drawn) | 195 µM | > 200 µM | 
O=[N+]([O-])c1cccc(-c2cn3c(n2)Cc2ccccc2C3)c1 | > 200 µM | 33.9 µM | 
COc1ccccc1/C=N/Nc1nnc2c3ccccc3c3ncccc3c2n1 | > 200 µM | 138 µM | 
Brc1c(C#CCC2CCCCC2)ccc(C#CCC2CCCCC2)c1Br | > 100 µM | > 100 µM | 
CN(CCSCC(N)C(=O)O)CCSCC(N)C(=O)O (stereo not drawn) | > 87.1 µM | > 87.1 µM | 
CCOC(=O)CNS(=O)(=O)c1ccccc1 | > 200 µM | > 200 µM | 
CCOC(=O)Cc1nc2sc3c(c2c(=O)[nH]1)CCCC3 | > 324 µM | > 324 µM | 
O=C(NC1C2CC3CC(C2)CC1C3)c1cc(/C=C/c2ccccc2)[nH]c(=S)n1 (stereo not drawn) | > 34.7 µM | > 34.7 µM | 
O=C(c1ccc(Cl)cc1Cl)N(C(=O)N1CCCCC1)c1ccccc1 | > 200 µM | > 200 µM | 
COc1ccc2c(c1)C(N)=C(c1ccccc1)C2=O | > 200 µM | 75.9 µM | 
CC(=O)c1sc2c(c1OC(=O)c1ccco1)c(=O)n(-c1ccccc1)c(=S)n2-c1ccccc1 | > 200 µM | 9.77 µM | 
Cc1cc2c(C(C)C)c(O)c(O)c(C=Nc3ccc(Cl)cc3)c2c(O)c1-c1c(C)cc2c(C(C)C)c(O)c(O)c(C=Nc3ccc(Cl)cc3)c2c1O | > 200 µM | 11.7 µM | 
Cc1cc(Cl)c(O)c(-c2cc(-c3ccccc3O)c(C#N)c(N)n2)c1 | > 200 µM | 2.14 µM | 
NCCOc1c2occc2cc2ccc(=O)oc12 | > 275 µM | 20.4 µM | 
COc1ccc(C23c4ccc(OC)cc4CC2(c2ccc([N+](=O)[O-])cc2)Cc2cc(OC)ccc23)cc1 (stereo not drawn) | > 200 µM | > 200 µM | 
COC(=O)CCC1(C)C2CCC1/C(=N/O)C2 (stereo not drawn) | > 200 µM | > 200 µM | 
COc1cc2c(cc1OC)C(=O)C1(C2)[C@H](c2ccccc2)C2C(=O)c3cc(OC)c(OC)cc3C2[C@H]1c1ccccc1 (stereo partly drawn) | > 200 µM | > 200 µM | 
